Source: ChEMBL document CHEMBL5113512, “β-Nitrostyrene derivatives as broad range potential antifungal agents targeting fungal cell wall” (2022)
In brackets after ≈: the same amount, converted by molar mass. Activity calls are given as the source filed them. The calls are words filed in the database; no cut-off is given here.

How the values were obtained:
[1] = tested on: [Candida] auris; test: Antifungal activity against wild type Candida auris 102 assessed as inhibition of fungal growth by broth microdilution method; assay type: functional; details: Candidozyma auris
[2] = tested on: Candida albicans; test: Synergistic antifungal activity against Candida albicans ATCC 24433 overexpressing ADPDR5-G assessed as fractional inhibitory concentration index incubated for 48 hrs in presence of caspofungin by checker board assay; assay type: functional
[3] = tested on: Candida albicans; test: Inhibition of drug efflux in Candida albicans ATCC 24433 overexpressing ADCDR1-GFP assessed as reduction in rhodamine 6g efflux preincubated for 45 mins followed by substrate addition and measured after 30 mins; assay type: functional; details: dose 0.1-100 µg/ml, time 75.0 min, DDE = dose-dependent effect
[4] = tested on: Candida albicans; test: Antifungal activity against Candida albicans ATCC 24433 overexpressing transporter protein F5 assessed as inhibition of fungal growth by broth microdilution method; assay type: functional
[5] = tested on: Candida parapsilosis; test: Antifungal activity against Candida parapsilosis ATCC 90018 assessed as inhibition of fungal growth by broth microdilution method; assay type: functional; details: Lodderomyces parapsilosis
[6] = tested on: [Candida] auris; test: Antifungal activity against Candida auris 105 assessed as inhibition of fungal growth by broth microdilution method; assay type: functional; details: Candidozyma auris
[7] = tested on: Cell membrane; test: Disruption of membrane integrity in Candida auris CBS10913 assessed as cell shrinkage and lysis by measuring leakage of intracellular material measured after 6 hrs by SEM analysis; details: Candidozyma auris
[8] = tested on: [Candida] auris; test: Induction of ROS generation in Candida auris CBS10913 assessed as increase in relative fluorescence unit at sub-inhibitory concentration incubated for 1 hr by DCFDA staining-based flow cytometric analysis; assay type: functional, organism-based; details: Candidozyma auris
[9] = tested on: [Candida] auris; test: Induction of ROS generation in Candida auris CBS10913 at sub-inhibitory concentration incubated for 1 hr by DCFDA staining-based flow cytometric analysis; assay type: functional, organism-based; details: Candidozyma auris
[10] = tested on: Candida albicans; test: Antifungal activity against Candida albicans ATCC 24433 assessed as inhibition of fungal growth by broth microdilution method; assay type: functional
[11] = tested on: Candida albicans; test: Antifungal activity against Candida albicans ATCC 24433 overexpressing ADCDR1-GFP assessed as inhibition of fungal growth by broth microdilution method; assay type: functional
[12] = tested on: Candida albicans; test: Antifungal activity against Candida albicans ATCC 24433 overexpressing AD(1-8)u-assessed as inhibition of fungal growth by broth microdilution method; assay type: functional
[13] = tested on: Candida albicans; test: Induction of ROS generation in Candida albicans ATCC 24433 at sub-inhibitory concentration incubated for 1 hr by DCFDA staining-based flow cytometric analysis; assay type: functional, organism-based
[14] = tested on: Candida albicans; test: Antifungal activity against Candida albicans SN152 harboring CAS5 mutant assessed as inhibition of fungal growth by broth microdilution method; assay type: functional
[15] = tested on: Candida albicans; test: Inhibition of drug efflux in Candida albicans ATCC 24433 overexpressing AD(1-8)u- assessed as […] in nile red efflux incubated for 30 mins by flow cytometry; assay type: functional
[16] = tested on: Candida albicans; test: Antifungal activity against Candida albicans ATCC 24433 overexpressing transporter protein GU5 assessed as inhibition of fungal growth by broth microdilution method; assay type: functional
[17] = tested on: Candida tropicalis; test: Antifungal activity against Candida tropicalis ATCC 750 assessed as inhibition of fungal growth by broth microdilution method; assay type: functional
[18] = tested on: [Candida] auris; test: Antifungal activity against Candida auris 118 assessed as inhibition of fungal growth by broth microdilution method; assay type: functional; details: Candidozyma auris
[19] = tested on: Candida albicans; test: Antifungal activity against Candida albicans ATCC 24433 overexpressing ADPDR5-GFP assessed as inhibition of fungal growth by broth microdilution method; assay type: functional
[20] = tested on: Candida albicans; test: Synergistic antifungal activity against Candida albicans ATCC 24433 overexpressing ADCDR1-GFP assessed as fractional inhibitory concentration index incubated for 48 hrs in presence of caspofungin by checker board assay; assay type: functional
[21] = tested on: Candida albicans; test: Synergistic antifungal activity against Candida albicans ATCC 24433 overexpressing ADCaMDR1-GFP assessed as fractional inhibitory concentration index incubated for 48 hrs in presence of caspofungin by checker board assay; assay type: functional
[22] = tested on: Candida albicans; test: Inhibition of drug efflux in Candida albicans ATCC 24433 overexpressing ADPDR5-GFP assessed as reduction in rhodamine 6g efflux preincubated for 45 mins followed by substrate addition and measured after 30 mins; assay type: functional; details: dose 0.1-100 µg/ml, time 75.0 min, DDE = dose-dependent effect
[23] = tested on: Candida albicans; test: Inhibition of drug efflux in Candida albicans ATCC 24433 overexpressing ADCaMDR1-GF assessed as […] in nile red efflux incubated for 30 mins by flow cytometry; assay type: functional
[24] = tested on: Candida albicans; test: Induction of ROS generation in Candida albicans ATCC 24433 assessed as increase in relative fluorescence unit at sub-inhibitory concentration incubated for 1 hr by DCFDA staining-based flow cytometric analysis; assay type: functional, organism-based
[25] = tested on: Cell membrane; test: Disruption of membrane integrity in Candida albicans ATCC 24433 assessed as cell deformation measured after 30 mins by SEM analysis; assay type: subcellular
[26] = tested on: Candida albicans; test: Antifungal activity against Candida albicans ATCC 24433 overexpressing ADCaMDR1-GFP assessed as inhibition of fungal growth by broth microdilution method; assay type: functional
[27] = tested on: Candida albicans; test: Fungicidal activity against Candida albicans ATCC 24433 assessed as reduction in fungal growth by measuring reduction in colony count at sub-MIC concentration measured after 48 hrs by time kill assay; assay type: functional, organism-based
[28] = tested on: Cell membrane; test: Disruption of membrane integrity in Candida albicans ATCC 24433 assessed as cell shrinkage and lysis by measuring leakage of intracellular material measured after 6 hrs by SEM analysis; assay type: subcellular
[29] = tested on: Cell membrane; test: Disruption of membrane integrity in Candida auris CBS10913 assessed as cell surface perturbations measured after 3 hrs by SEM analysis; assay type: subcellular; details: Candidozyma auris
[30] = tested on: Candida albicans; test: Antifungal activity against wild type Candida albicans SN152 assessed as inhibition of fungal growth by broth microdilution method; assay type: functional
[31] = tested on: Candida albicans; test: Antifungal activity against Candida albicans ATCC 24433 overexpressing transporter protein GU4 assessed as inhibition of fungal growth by broth microdilution method; assay type: functional
[32] = tested on: Candida albicans; test: Antifungal activity against Candida albicans ATCC 24433 overexpressing transporter protein F2 assessed as inhibition of fungal growth by broth microdilution method; assay type: functional
[33] = tested on: [Candida] auris; test: Antifungal activity against Candida auris 102 assessed as inhibition of fungal growth by broth microdilution method; assay type: functional; details: Candidozyma auris
[34] = tested on: Nakaseomyces glabratus; test: Antifungal activity against Candida glabrata ATCC 2001 assessed as inhibition of fungal growth by broth microdilution method; assay type: functional
[35] = tested on: Cell membrane; test: Disruption of membrane integrity in Candida albicans ATCC 24433 assessed as cell surface perturbations measured after 3 hrs by SEM analysis
[36] = tested on: Candida albicans; test: Synergistic antifungal activity against Candida albicans ATCC 24433 assessed as fractional inhibitory concentration index incubated for 48 hrs in presence of caspofungin by checker board assay; assay type: functional
[37] = tested on: Candida; test: Downregulation of STT4 gene expression in Candida cells; assay type: functional, cell-based
[38] = tested on: Candida; test: Downregulation of CDC15 gene expression in Candida cells; assay type: functional, cell-based
[39] = tested on: Candida; test: Downregulation of CDC42 gene expression in Candida cells; assay type: functional, cell-based
[40] = tested on: Candida; test: Downregulation of GUT1 gene expression in Candida cells; assay type: functional, cell-based
[41] = tested on: Candida; test: Downregulation of CDC4 gene expression in Candida cells; assay type: functional, cell-based

| Structure (SMILES) | MIC80 [1] [mg/L] | fractional inhibitory concentration index (FICI) [2] | MIC80 [4] [mg/L] | MIC80 [5] [mg/L] | MIC80 [6] [mg/L] | MIC80 [10] [mg/L] | MIC80 [11] [mg/L] | MIC80 [12] [mg/L] | MIC80 [14] [mg/L] | MIC80 [16] [mg/L] | MIC80 [17] [mg/L] | MIC80 [18] [mg/L] | MIC80 [19] [mg/L] | fractional inhibitory concentration index (FICI) [20] | MIC80 [26] [mg/L] | MIC80 [30] [mg/L] | MIC80 [31] [mg/L] | MIC80 [32] [mg/L] | MIC80 [33] [mg/L] | MIC80 [34] [mg/L] | other results |
| --- | --- | --- | --- | --- | --- | --- | --- | --- | --- | --- | --- | --- | --- | --- | --- | --- | --- | --- | --- | --- | --- |
| CC/C(=C\c1ccc(OC)cc1)[N+](=O)[O-] | 2 (≈ 9.65 µM) | <0.5 | 2 (≈ 9.65 µM) | 8 (≈ 38.6 µM) | 2 (≈ 9.65 µM) | 4 (≈ 19.3 µM) | 4 (≈ 19.3 µM) | 4 (≈ 19.3 µM) | 2 (≈ 9.65 µM) | 4 (≈ 19.3 µM) | 2 (≈ 9.65 µM) | 4 (≈ 19.3 µM) | 2 (≈ 9.65 µM) | <0.5 | 2 (≈ 9.65 µM) | 8 (≈ 38.6 µM) | 4 (≈ 19.3 µM) | 2 (≈ 9.65 µM) | 4 (≈ 19.3 µM) | 4 (≈ 19.3 µM) | inhibition [3]: Dde; Activity [7]: Active; Activity [8]: Active; Activity [9]: Active; Activity [13]: Active; inhibition [15]: Active; fractional inhibitory concentration index (FICI) [21]: <0.5; inhibition [22]: Dde; inhibition [23]: Active; Activity [24]: Active; Activity [25]: Active; Activity [27]: Active; Activity [28]: Active; Activity [29]: Active; Activity [35]: Active; fractional inhibitory concentration index (FICI) [36]: <2.5 |
| Nc1c(/N=N/c2ccc(-c3ccc(/N=N/c4cc(S(=O)(=O)[O-])c5ccccc5c4N)cc3)cc2)cc(S(=O)(=O)[O-])c2ccccc12.[Na+].[Na+] [CONGO RED] | – | – | – | – | – | – | – | – | 0.781 | – | – | – | – | – | – | 100 | – | – | – | – | – |
| OC(Cn1cncn1)(Cn1cncn1)c1ccc(F)cc1F [FLUCONAZOLE] | – | – | – | – | – | – | – | – | 1 (≈ 3.27 µM) | – | – | – | – | – | – | 1 (≈ 3.27 µM) | – | – | – | – | – |
| C/C(=C\c1ccc(N(C)C)cc1)[N+](=O)[O-] | 8 (≈ 38.8 µM) | – | 16 (≈ 77.6 µM) | 32 (≈ 155 µM) | 8 (≈ 38.8 µM) | 16 (≈ 77.6 µM) | 32 (≈ 155 µM) | 16 (≈ 77.6 µM) | – | 16 (≈ 77.6 µM) | 16 (≈ 77.6 µM) | 8 (≈ 38.8 µM) | 16 (≈ 77.6 µM) | – | 8 (≈ 38.8 µM) | – | 16 (≈ 77.6 µM) | 16 (≈ 77.6 µM) | 8 (≈ 38.8 µM) | 32 (≈ 155 µM) | – |
| COc1ccc(/C=C(\C)[N+](=O)[O-])cc1 | 2 (≈ 10.4 µM) | <0.5 | 2 (≈ 10.4 µM) | 16 (≈ 82.8 µM) | 2 (≈ 10.4 µM) | 8 (≈ 41.4 µM) | 8 (≈ 41.4 µM) | 4 (≈ 20.7 µM) | – | 4 (≈ 20.7 µM) | 4 (≈ 20.7 µM) | 4 (≈ 20.7 µM) | 4 (≈ 20.7 µM) | <0.5 | 4 (≈ 20.7 µM) | – | 4 (≈ 20.7 µM) | 2 (≈ 10.4 µM) | 4 (≈ 20.7 µM) | 4 (≈ 20.7 µM) | fractional inhibitory concentration index (FICI) [21]: <0.5; fractional inhibitory concentration index (FICI) [36]: <1.5 |
| CC[C@H](C)C[C@H](C)CCCCCCCCC(=O)N[C@H]1C[C@@H](O)[C@@H](NCCN)NC(=O)[C@@H]2[C@@H](O)CCN2C(=O)[C@H]([C@H](O)CCN)NC(=O)[C@H]([C@H](O)[C@@H](O)c2ccc(O)cc2)NC(=O)[C@@H]2C[C@@H](O)CN2C(=O)[C@H]([C@@H](C)O)NC1=O [CASPOFUNGIN] | – | – | – | – | – | – | – | – | 0.0156 (≈ 0.0143 µM) | – | – | – | – | – | – | 0.125 (≈ 0.114 µM) | – | – | – | – | Activity [37]: Active; Activity [38]: Active; Activity [39]: Active; Activity [40]: Active; Activity [41]: Active |
